Experimental data as given in US5407918A, “16-membered macrolide derivatives and process for producing the same” (Meiji Seika Kaisha, Ltd., priority 1992, dated 1995).
In brackets after ≈: the same amount, converted by molar mass. Read-outs that look alike come from different tables or passages of the source.

Experiments:
metabolism in plasma = format: in vitro ADME, rat; details: no free hydroxyl group in the neutral sugar moiety formed
Protocol: Each test compound and 50 μl of a methanol solution (10,000 γ) were added to 950 μl of thawed rat plasma and the resulting mixture was incubated at 37° C. for 24 hours. After completion of the incubation, a 20 μl portion of the mixture was added to 980 μl of 0.05M phosphate buffer (pH 7.6). A 20 μl portion of the sample solution was used to measure antimicrobial activity against M. luteus. Separately, the calibration curve was prepared by using a methanol solution containing each test compound. The starting activity of each compound in the plasma was referred to as 100%.

[1] = test system: Gram-positive bacteria and Mycoplasma; test: antimicrobial activity in vitro (summary in words); format: cell-based; details: from Table 1
Protocol: (§1) Antimicrobial activities of the compounds of the present invention were determined by measuring minimum inhibitory concentration (MIC). Minimum inhibitory concentration was determined by the agar plate dilution method in the following manner.
(§2) Test strains were subjected to seed culture using Sensitivity test broth (STB, Nissui Pharmaceutical) except that the strains belonging to the genus Streptococcus, Branhamella and Haemophilus were cultured on blood agar plate. A 5 μl portion of cell suspension of the test strains having about 10^6 CFU/ml was inoculated into Sensitivity disk agar (SDA, Nissui Pharmaceutical) supplemented with 5% horse blood and incubated at 37° C. for 20 hours. Then, MIC was measured. For comparison, MDM and leucomycin A7 (LM-A7) was also tested.

S. Pyogenes Cook = test: MIC, agar plate dilution method; format: cell-based; details: Streptococcus pyogenes, 37° C., 20 hours, read-out: Antimicrobial activity (MIC)
Protocol: as §1, §2

S. pneumoniae IP692 = test: MIC, agar plate dilution method; format: cell-based; details: Streptococcus pneumoniae; S. pneumoniae IP692; 37° C., 20 hours; read-out: Antimicrobial activity (MIC)
Protocol: as §1, §2

M. pneumoniae FH-P24 = test: MIC, agar plate dilution method; format: cell-based; details: Mycoplasmoides pneumoniae, FHP24, 20 h, read-out: Antimicrobial activity (MIC)
Protocol: as §1, §2

E. coli NIHJ JC-2 = test: MIC, agar plate dilution method; format: cell-based; details: Escherichia coli, read-out: Antimicrobial activity (MIC)
Protocol: as §1, §2

B. catarrhalis W-0506 = test: MIC, agar plate dilution method; format: cell-based; details: Moraxella catarrhalis, W0506, 37° C., 20 hours, read-out: Antimicrobial activity (MIC)
Protocol: as §1, §2

S. epidermidis ATCC14990 = test: MIC, agar plate dilution method; format: cell-based; details: Staphylococcus epidermidis, 37° C., 20 hours, read-out: Antimicrobial activity (MIC)
Protocol: as §1, §2

S. aureus MS15009/pMS99 = test: MIC, agar plate dilution method; format: cell-based; details: Staphylococcus aureus, MS15009/PMS99, 20 h, read-out: Antimicrobial activity (MIC)
Protocol: as §1, §2

K. pneumoniae PC1602 = test: MIC, agar plate dilution method; format: cell-based; details: Klebsiella pneumoniae, 37° C., 20 hours, read-out: Antimicrobial activity (MIC)
Protocol: as §1, §2

M. luteus ATCC9341 = test: MIC, agar plate dilution method; format: cell-based; details: Micrococcus luteus; M. luteus ATCC9341; 37° C., 20 hours; read-out: Antimicrobial activity (MIC)
Protocol: as §1, §2

M. pneumoniae Mac = test: MIC, agar plate dilution method; format: cell-based; details: Mycoplasmoides pneumoniae, 20 h, read-out: Antimicrobial activity (MIC)
Protocol: as §1, §2

S. aureus MS15027 = test: MIC, agar plate dilution method; format: cell-based; details: Staphylococcus aureus, 37° C., 20 hours, read-out: Antimicrobial activity (MIC)
Protocol: as §1, §2

S. Pneumoniae Type 1 = test: MIC, agar plate dilution method; format: cell-based; details: Streptococcus pneumoniae, read-out: Antimicrobial activity (MIC)
Protocol: as §1, §2

S. aureus M126 = test: MIC, agar plate dilution method; format: cell-based; details: Staphylococcus aureus; S. aureus M126; 37° C., 20 hours; read-out: Antimicrobial activity (MIC)
Protocol: as §1, §2

M. pneumoniae Numata = test: MIC, agar plate dilution method; format: cell-based; details: Mycoplasmoides pneumoniae, 20 h, read-out: Antimicrobial activity (MIC)
Protocol: as §1, §2

E. faecalis W-73 = test: MIC, agar plate dilution method; format: cell-based; details: Enterococcus faecalis, read-out: Antimicrobial activity (MIC)
Protocol: as §1, §2

H. influenzae 9334 = test: MIC, agar plate dilution method; format: cell-based; details: read-out: Antimicrobial activity (MIC)
Protocol: as §1, §2

S. aureus MS15009/pMS98 = test: MIC, agar plate dilution method; format: cell-based; details: Staphylococcus aureus, MS15009/PMS98, 20 h, read-out: Antimicrobial activity (MIC)
Protocol: as §1, §2

S. aureus MS15026 = test: MIC, agar plate dilution method; format: cell-based; details: Staphylococcus aureus, 37° C., 20 hours, read-out: Antimicrobial activity (MIC)
Protocol: as §1, §2

S. aureus 209P JC-1 = test: MIC, agar plate dilution method; format: cell-based; details: Staphylococcus aureus; S. aureus 209P JC-1; 37° C., 20 hours; read-out: Antimicrobial activity (MIC)
Protocol: as §1, §2

M. pneumoniae FH = test: MIC, agar plate dilution method; format: cell-based; details: Mycoplasmoides pneumoniae, 20 h, read-out: Antimicrobial activity (MIC)
Protocol: as §1, §2

S. aureus M133 = test: MIC, agar plate dilution method; format: cell-based; details: Staphylococcus aureus, 37° C., 20 hours, read-out: Antimicrobial activity (MIC)
Protocol: as §1, §2

B. catarrhalis W-0500 = test: MIC, agar plate dilution method; format: cell-based; details: Moraxella catarrhalis, W0500, 37° C., 20 hours, read-out: Antimicrobial activity (MIC)
Protocol: as §1, §2

test strains = test: antimicrobial activity in vitro, comparison in words; format: cell-based
Protocol: as §1, §2

Gram-positive bacteria = test: antimicrobial activity in vitro (summary in words); format: cell-based; details: from Tables 2 and 3
Protocol: as §1, §2

H. influenzae Type b = test: MIC, agar plate dilution method; format: cell-based; details: Haemophilus influenzae; H. influenzae Type b; 37° C., 20 hours; read-out: Antimicrobial activity (MIC)
Protocol: as §1, §2

Row | Compound | MIC (S. Pyogenes Cook) [µg/mL] | MIC (S. pneumoniae IP692) [µg/mL] | MIC (B. catarrhalis W-0506) [µg/mL] | MIC (S. epidermidis ATCC14990) [µg/mL] | MIC (S. aureus MS15009/pMS99) [µg/mL] | MIC (K. pneumoniae PC1602) [µg/mL] | MIC (M. luteus ATCC9341) [µg/mL] | MIC (S. aureus MS15027) [µg/mL] | MIC (S. aureus M126) [µg/mL] | MIC (S. aureus MS15009/pMS98) [µg/mL] | MIC (S. aureus MS15026) [µg/mL] | MIC (S. aureus 209P JC-1) [µg/mL] | MIC (S. aureus M133) [µg/mL] | MIC (B. catarrhalis W-0500) [µg/mL] | also measured
1 | CCCCO[C@H]1[C@H](C)O[C@@H](O[C@H]2[C@H](N(C)C)[C@@H](O)[C@H](O[C@H]3[C@@H](CC=O)C[C@@H](C)[C@@H](O)/C=C/C=C/C[C@@H](C)OC(=O)C[C@@H](OC(=O)CC)[C@@H]3OC)O[C@@H]2C)C[C@@]1(C)OC [(2)] | 0.2 (≈ 0.242 µM) | 0.05 (≈ 0.0604 µM) | 1.56 (≈ 1.88 µM) | 1.56 (≈ 1.88 µM) | > 100 | > 100 | 0.05 (≈ 0.0604 µM) | 0.78 (≈ 0.942 µM) | > 100 | 0.39 (≈ 0.471 µM) | > 100 | 0.39 (≈ 0.471 µM) | 0.78 (≈ 0.942 µM) | 1.56 (≈ 1.88 µM) | degree of loss of the antimicrobial activity in the plasma compared with MOM (M. luteus): lower than that of MOM; duration of antimicrobial activity in rat plasma (M. luteus): extremely long-acting in rat plasma; extent of metabolism (metabolism in plasma): hardly metabolized; antimicrobial activities compared with MDM [1]: comparable to, or even exceeding, that of MDM; antimicrobial activities on Gram-positive bacteria and Mycoplasma [1]: strong antimicrobial activities; MIC (M. pneumoniae FH-P24): 0.1 µg/mL (≈ 0.121 µM); MIC (E. coli NIHJ JC-2; NIHJJC2, 20 h): > 100 µg/mL; MIC (M. pneumoniae Mac): 0.1 µg/mL (≈ 0.121 µM); MIC (S. Pneumoniae Type 1; 20 h): 0.2 µg/mL (≈ 0.242 µM); MIC (M. pneumoniae Numata): 0.05 µg/mL (≈ 0.0604 µM); MIC (E. faecalis W-73; W73, 20 h): 3.13 µg/mL (≈ 3.78 µM); MIC (H. influenzae 9334; Haemophilus influenzae, 9334, 20 h): 6.25 µg/mL (≈ 7.55 µM); MIC (M. pneumoniae FH): 1.56 µg/mL (≈ 1.88 µM)
2 | CO[C@@H]1[C@@H](O[C@@H]2O[C@H](C)[C@@H](O[C@H]3C[C@@](C)(OC)[C@@H](OCc4ccccc4)[C@H](C)O3)[C@H](N(C)C)[C@H]2O)[C@@H](CC=O)C[C@@H](C)[C@@H](O)/C=C/C=C/C[C@@H](C)OC(=O)C[C@H]1O [(16)] | 0.1 (≈ 0.124 µM) | 0.1 (≈ 0.124 µM) | 0.78 (≈ 0.968 µM) | 0.2 (≈ 0.248 µM) | > 100 | > 100 | 0.05 (≈ 0.062 µM) | 0.2 (≈ 0.248 µM) | > 100 | 0.2 (≈ 0.248 µM) | > 100 | 0.1 (≈ 0.124 µM) | 0.39 (≈ 0.484 µM) | 0.78 (≈ 0.968 µM) | antimicrobial activity in vitro compared with MOM (test strains; data are not shown): clearly much superior to MOM; antimicrobial activity compared with LM-A7 (test strains; except on Haemophilus influenzae, Tables 2 and 3): comparable or superior; antimicrobial activity on Gram-positive bacteria (Gram-positive bacteria): strong antimicrobial activity; MIC (E. coli NIHJ JC-2; NIHJJC2, E. coli NIHJ JC-2, 37° C., 20 hours): > 100 µg/mL; MIC (S. Pneumoniae Type 1; S. Pneumoniae Type 1, 37° C., 20 hours): 0.1 µg/mL (≈ 0.124 µM); MIC (H. influenzae Type b): 6.25 µg/mL (≈ 7.75 µM); MIC (E. faecalis W-73; W73, E. faecalis W-73, 37° C., 20 hours): 0.39 µg/mL (≈ 0.484 µM); MIC (H. influenzae 9334; Haemophilus influenzae, H. influenzae 9334, 37° C., 20 hours): 3.13 µg/mL (≈ 3.88 µM)
